According to patent publication US9062078B2, “Substituted 7-azabicyles and their use as orexin receptor modulators” (priority 2013, dated 2015):
Read-outs that look alike come from different tables or passages of the source.

Experiments:
[1] = target: human orexin 1 receptor (Homo sapiens (Human), UniProt O43613); assay: Human orexin 1 receptor radioligand binding (competitive, [3H]-SB674042, CHO cell preparations)
[2] = target: rat orexin 1 receptor (Rattus norvegicus, UniProt P56718); assay: Rat orexin 1 receptor radioligand binding (competitive, [3H]-SB674042, HEK293 cell preparations)
[3] = target: human orexin 2 receptor (Homo sapiens (Human), UniProt O43614); assay: Human orexin 2 receptor radioligand binding (competitive, [3H]-EMPA, HEK293 cell preparations)
Chain of human orexin 2 receptor (O43614 whole entry): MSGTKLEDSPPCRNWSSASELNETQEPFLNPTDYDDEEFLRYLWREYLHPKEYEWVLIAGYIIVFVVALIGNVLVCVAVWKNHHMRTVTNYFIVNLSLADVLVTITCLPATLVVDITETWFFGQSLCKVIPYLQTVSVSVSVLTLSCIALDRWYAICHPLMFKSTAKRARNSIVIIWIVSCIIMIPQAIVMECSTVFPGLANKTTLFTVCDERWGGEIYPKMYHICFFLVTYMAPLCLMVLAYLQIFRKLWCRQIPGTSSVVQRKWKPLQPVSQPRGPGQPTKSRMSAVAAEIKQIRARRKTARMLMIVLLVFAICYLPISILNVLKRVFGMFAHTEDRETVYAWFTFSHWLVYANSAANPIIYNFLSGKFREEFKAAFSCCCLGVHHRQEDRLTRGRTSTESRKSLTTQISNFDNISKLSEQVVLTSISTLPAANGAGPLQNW

[4] = rat orexin 1 receptor, [3H]-SB674042 competition binding, read-out: rOX1 Ki (nm)
[5] = human orexin 2 receptor, [3H]-EMPA competition binding, read-out: hOX2 Ki (nm)
[6] = human orexin 1 receptor, [3H]-SB674042 competition binding, read-out: hOX1 Ki (nm)

Chain of human orexin 1 receptor (O43613 whole entry): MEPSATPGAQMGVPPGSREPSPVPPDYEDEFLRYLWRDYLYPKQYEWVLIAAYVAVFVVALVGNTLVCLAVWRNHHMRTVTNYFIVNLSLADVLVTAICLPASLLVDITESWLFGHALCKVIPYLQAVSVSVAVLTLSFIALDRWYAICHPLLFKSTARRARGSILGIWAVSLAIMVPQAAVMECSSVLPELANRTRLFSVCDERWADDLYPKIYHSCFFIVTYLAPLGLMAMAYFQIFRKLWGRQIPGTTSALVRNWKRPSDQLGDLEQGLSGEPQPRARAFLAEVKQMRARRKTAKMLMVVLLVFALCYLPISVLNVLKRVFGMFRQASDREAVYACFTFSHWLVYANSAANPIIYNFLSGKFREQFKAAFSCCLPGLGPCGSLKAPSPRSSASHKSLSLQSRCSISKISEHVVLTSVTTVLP

Row | Structure (SMILES) | Ki ([1]; read-out: hOX1 Ki (nm)) [nM] | Ki [2, 4] [nM] | Ki [3, 5] [nM] | Ki ([1]; hOX1 Ki (nm)) [nM] | Ki ([2]; rOX1 Ki (nm)) [nM] | Ki [1, 6] [nM] | Ki ([2]; read-out: rOX1 Ki (nm)) [nM] | Ki ([3]; hOX2 Ki (nm)) [nM]
1 | Cc1cccc(C(=O)N2[C@@H]3CC[C@H]2[C@H](Nc2ncc(C(F)(F)F)cn2)C3)c1I [Example 276, (2-iodo-3-methylphenyl)((1S,2R,4R)-2-((5-(trifluoromethyl)pyrimidin-2-yl)amino)-7-azabicyclo[2.2.1]heptan-7-yl)methanone] | 97 | 133 | 2500 | – | – | – | – | –
2 | Cc1ccc(-n2nccn2)c(C(=O)N2C3CCC2C(COc2ccc(Br)cn2)C3)n1 (racemic) [Example 49, (±)-(2-(((5-bromopyridin-2-yl)oxy)methyl)-7-azabicyclo[2.2.1]heptan-7-yl)(6-methyl-3-(2H-1,2,3-triazol-2-yl)pyridin-2-yl)methanone] | – | – | 192 | 69 | 81 | – | – | –
3 | Cc1ccnc(C(=O)N2C3CCC2C(COc2ccccn2)C3)c1-n1nccn1 (racemic) [Example 72, (±)-(4-methyl-3-(2H-1,2,3-triazol-2-yl)pyridin-2-yl)(2-((pyridin-2-yloxy)methyl)-7-azabicyclo[2.2.1]heptan-7-yl)methanone] | – | 137 | 2400 | – | – | 162 | – | –
4 | Cc1ccc(-n2nccn2)c(C(=O)N2C3CCC2C(COc2ncccc2C)C3)n1 (racemic) [Example 55, (±)-(6-methyl-3-(2H-1,2,3-triazol-2-yl)pyridin-2-yl)(2-(((3-methylpyridin-2-yl)oxy)methyl)-7-azabicyclo[2.2.1]heptan-7-yl)methanone] | – | – | 202 | 150 | 119 | – | – | –
5 | CCOc1ccc2ccccc2c1C(=O)N1C2CCC1C(COc1ccccn1)C2 (racemic) [Example 89, (±)-(2-ethoxynaphthalen-1-yl)(2-((pyridin-2-yloxy)methyl)-7-azabicyclo[2.2.1]heptan-7-yl)methanone] | – | 11 | 38 | – | – | 10 | – | –
6 | Cc1nc(C(=O)N2[C@@H]3CC[C@H]2[C@H](Nc2cnc(C(F)(F)F)cn2)C3)c(-c2ccc(F)cc2)s1 [Example 244, (5-(4-fluorophenyl)-2-methylthiazol-4-yl)((1S,2R,4R)-2-((5-(trifluoromethyl)pyrazin-2-yl)amino)-7-azabicyclo[2.2.1]heptan-7-yl)methanone] | 46 | – | 235 | – | – | – | 74 | –
7 | Cc1ccc(-c2ncco2)c(C(=O)N2C3CCC2C(COc2ccccn2)C3)n1 (racemic) [Example 93, (±)-(6-methyl-3-(oxazol-2-yl)pyridin-2-yl)(2-((pyridin-2-yloxy)methyl)-7-azabicyclo[2.2.1]heptan-7-yl)methanone] | – | 40 | – | – | – | 73 | – | 836
8 | O=C(c1cc(CO)ccc1-n1nccn1)N1C2CCC1C(COc1ccc(F)cn1)C2 (racemic) [Example 126, (±)-(2-(((5-fluoropyridin-2-yl)oxy)methyl)-7-azabicyclo[2.2.1]heptan-7-yl)(5-(hydroxymethyl)-2-(2H-1,2,3-triazol-2-yl)phenyl)methanone] | – | 23 | 231 | – | – | 27 | – | –
9 | Cc1cc(-c2ccc(C)nc2C(=O)N2C3CCC2C(COc2ccc(F)cn2)C3)on1 (racemic) [Example 69, (±)-(2-(((5-fluoropyridin-2-yl)oxy)methyl)-7-azabicyclo[2.2.1]heptan-7-yl)(6-methyl-3-(3-methylisoxazol-5-yl)pyridin-2-yl)methanone] | – | – | 174 | 64 | 40 | – | – | –
10 | Cc1ccc(-c2ncccn2)c(C(=O)N2C3CCC2C(Nc2cnc4ccccc4n2)C3)n1 (racemic) [Example 208, (±)-(6-methyl-3-(pyrimidin-2-yl)pyridin-2-yl)(2-(quinoxalin-2-ylamino)-7-azabicyclo[2.2.1]heptan-7-yl)methanone] | – | – | 90 | 30 | 26 | – | – | –
11 | Cc1nc(C(=O)N2C3CCC2C(COc2ccccn2)C3)c(-c2ccccc2)s1 (racemic) [Example 92, (±)-(2-methyl-5-phenylthiazol-4-yl)(2-((pyridin-2-yloxy)methyl)-7-azabicyclo[2.2.1]heptan-7-yl)methanone] | – | – | 218 | 11 | 20 | – | – | –
12 | Cc1ccc(-n2nccn2)c(C(=O)N2C3CCC2C(Nc2cnc4ccccc4n2)C3)n1 (racemic) [Example 205, (±)-(6-methyl-3-(2H-1,2,3-triazol-2-yl)pyridin-2-yl)(2-(quinoxalin-2-ylamino)-7-azabicyclo[2.2.1]heptan-7-yl)methanone] | – | – | – | 50 | 79 | – | – | 168
13 | O=C(c1cccc(F)c1-c1cccnn1)N1[C@@H]2CC[C@H]1[C@H](Nc1cnc(C(F)(F)F)cn1)C2 [Example 262, (3-fluoro-2-(pyridazin-3-yl)phenyl)((1S,2R,4R)-2-((5-(trifluoromethyl)pyrazin-2-yl)amino)-7-azabicyclo[2.2.1]heptan-7-yl)methanone] | – | 106 | 4200 | – | – | 175 | – | –
14 | COc1cccc(-n2nccn2)c1C(=O)N1C2CCC1C(COc1ccc(F)cn1)C2 (racemic) [Example 108, (±)-(2-(((5-fluoropyridin-2-yl)oxy)methyl)-7-azabicyclo[2.2.1]heptan-7-yl)(2-methoxy-6-(2H-1,2,3-triazol-2-yl)phenyl)methanone] | – | 10 | 12 | – | – | 12 | – | –
15 | Cc1ccc(C(=O)N2[C@@H]3CC[C@H]2[C@H](Nc2cnc(C(F)(F)F)cn2)C3)c(-n2ccnn2)n1 [Example 248, (6-methyl-2-(1H-1,2,3-triazol-1-yl)pyridin-3-yl)((1S,2R,4R)-2-((5-(trifluoromethyl)pyrazin-2-yl)amino)-7-azabicyclo[2.2.1]heptan-7-yl)methanone] | – | 153 | > 10000 | – | – | 119 | – | –
16 | O=C(c1cccc(F)c1-n1nccn1)N1C2CCC1C(COc1ccc(F)cn1)C2 (racemic) [Example 117, (±)-(3-fluoro-2-(2H-1,2,3-triazol-2-yl)phenyl)(2-(((5-fluoropyridin-2-yl)oxy)methyl)-7-azabicyclo[2.2.1]heptan-7-yl)methanone] | – | – | 245 | 82 | 62 | – | – | –
17 | Cc1cnc(N[C@@H]2C[C@H]3CC[C@@H]2N3C(=O)c2cccc(F)c2-c2ncccn2)cn1 [Example 278, (3-fluoro-2-(pyrimidin-2-yl)phenyl)((1S,2R,4R)-2-((5-methylpyrazin-2-yl)amino)-7-azabicyclo[2.2.1]heptan-7-yl)methanone] | 77 | – | 934 | – | – | – | 87 | –
18 | Cc1ccc(-n2cccn2)c(C(=O)N2C3CCC2C(COc2ccc(F)cn2)C3)n1 (racemic) [Example 70, (±)-(2-(((5-fluoropyridin-2-yl)oxy)methyl)-7-azabicyclo[2.2.1]heptan-7-yl)(6-methyl-3-(1H-pyrazol-1-yl)pyridin-2-yl)methanone] | – | 88 | 624 | – | – | 62 | – | –
19 | O=C(c1ccc(F)cc1-c1ncccn1)N1[C@@H]2CC[C@H]1[C@H](Nc1ccc(C(F)(F)F)cn1)C2 [Example 280, (4-fluoro-2-(pyrimidin-2-yl)phenyl)((1S,2R,4R)-2-((5-(trifluoromethyl)pyridin-2-yl)amino)-7-azabicyclo[2.2.1]heptan-7-yl)methanone] | 37 | – | 1300 | – | – | – | 39 | –
